Measurements published in US20170087104A1, “MEDICAMENT” (AFT Pharmaceuticals Ltd., priority 2013, published 2017).
Counter-ions that a name gives are not always drawn.

Tests used:
[1] = First crossover study: absorption of phenylephrine, PE HCl alone vs Maxigesic PE (28 adult subjects); type: in vivo; conditions: human, 10 mg; phenylephrine in blood plasma, mean, oral tablets, n = 28 adult humans
[2] = Third cross-over study: Maxiclear PE 2.5 (two tablets) vs Sudafed PE (6 adult subjects); type: in vivo; conditions: human, oral, 10 mg; phenylephrine in plasma, mean, untransformed data, n = 6 adult humans

Work on CNC[C@H](O)c1cccc(O)c1 [10 mg phenylephrine hydrochloride, phenylephrine hydrochloride] yielded a Cmax [1] of 0.874 ng/mL, a Tmax [1] of 42 min and a Cmax [2] of 1.13 ng/mL. For the same compound, the Tmax [2] was 42 min.
